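Where inhibition never reached the appropriate level, the endpoint shown equals the highest concentration tested. Otherwise, values were interpolated linearly from a five-concentration, 48-hour dose response in 96-well plates. GI50 marks 50% less growth.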 Active and inactive are the calls of the source. Cut-off read from the data, not from the text of the source: active = GI50 up to about 1.1 µM and inactive = higher. Bounds are passed on as bounds.

This is an account of results in ChEMBL document CHEMBL1201862, “PubChem BioAssay data set” (2004).

Among the test systems are SNB-19; IGROV-1; SK-MEL-5; SK-MEL-2; MDA-MB-435; HT-29; PC-3; HOP-92; COLO 205; RPMI-8226; SR; SK-MEL-28; RXF 393; UACC-62; HCT-15; SF-539; A498; ACHN; CCRF-CEM; K562.
Assay in all cases: NCI tumour cell line growth inhibition, 48 h

On to `O=C(O)c1ccccc1C(=O)OCC1CCCN2CCCCC12` (stereo not given), for which the GI50 in the assay with SNB-19, with IGROV-1, in the assay on SK-MEL-5, in the assay on SK-MEL-2, in the assay on MDA-MB-435 and with HT-29 was > 100 µM (inactive) throughout. Besides, the GI50 in the assay on PC-3, with HOP-92, with COLO 205, in the assay with RPMI-8226, in the assay on SR and with SK-MEL-28 was > 100 µM (inactive) each time. Further, the GI50 was > 100 µM (inactive) in the assay on RXF 393; > 100 µM (inactive) in the assay with UACC-62; over 100 µM in the assay with HCT-15; > 100 µM (inactive) in the assay with SF-539; > 100 µM (inactive) with A498; > 100 µM (inactive) in the assay with ACHN. Moreover, the GI50 with CCRF-CEM and in the assay on K562 was > 100 µM (inactive) each time.
